Numbered stars: 1 amine (or outer) side, 2 acyl side, 3 side chain; on linkers, the order of the positions; unused ones are H or OH. Square brackets hold non-standard residues; d marks the D form. Peptide text beside a SMILES is read from it. * marks the point of attachment. Hexanoyl(5S-NH,4S-OH,6-Ph) = O=C(CC[C@H](O)[C@H](Cc1ccccc1)N[*:1])[*:2]; X2 = Nc1ccc2c(c1)Oc1ccccc1C21OC(=O)c2cc(C(=O)*)ccc21; X1 = CC(C)C[C@H](N[*:1])[C@@H](O)CCC(=O)[*:2]
Tests used:
[1] = molecular target: T1, Asp1 (Homo sapiens, UniProt Q9Y5Z0); assay: Asp1 fluorescence polarisation (competition) binding assay
T1 construct: A cDNA fragment encoding Asp1(EP0848062), amino acids 1 to 473; made in house; host or cells: CHO E1A (Chinese hamster ovary)
Procedure: A competition assay has also been designed to identify compounds acting at the Asp1 active site. The hydroxyethylene inhibitor (I) has been modified by addition of 5-, 6-rhodamine green to the free N-terminal amine of the compound to create labelled ligand (II). [drawing 5]
The resulting compound was tested experimentally as follows to determine the Kd with Asp1-Fc enzyme, prepared as above.
A three dimensional analysis varying enzyme and ligand (II) was performed. Ligand concentration range was 1, 3, 10, 30 and 100 nM. Enzyme concentration range was from 100 nM down in serial twofold dilutions (11 dilutions+no enzyme control).
Ligand of appropriate concentration was prepared in 5% DMSO. The enzyme solutions were prepared in 2 times (×2) assay buffer (where ×1=50 mM sodium acetate, 20 mM sodium chloride, 5% glycerol, 0.1% CHAPS, pH 3.8). 5 ul of the enzyme solution (of varying concentration) was mixed with 5 ul of the ligand (of varying concentration) in a low volume 384 microtitre plate. The samples were allowed to equilibrate for 15 min before the fluorescence polarisation was read on an LJL ACQUEST platereader.
The Anisotropy values were plotted and the Kd for the tight binding interaction obtained.
Enzyme (at a fixed concentration of 50 nM), ligand (II) (at a fixed concentration of 5.0 nM) and test compound (5 uM down in twofold serial dilutions) were mixed in ×1 assay buffer in a final assay volume of 10 ul and allowed to equilibrate for 3 hrs. The fluorescence polarisation was then read. The experiment was performed in duplicate.

[2] = molecular target: T1, Asp1; assay: Fluorescence Resonance Energy Transfer (FRET) cleavage assay for Asp1; type: biochemical
Excerpt: Fluorescence Resonsance Energy Transfer (FRET) Cleavage Assay for Asp1
A peptide (X) based on the sequence of the Swedish variant APP beta-site sequence has been doubly labelled for use in a FRET assay. [drawing 2] [drawing 3] This peptide includes the 11 residues spanning the Swedish variant beta-cleavage site (Ile-Ser-Glu-Val-Asn-Leu-Asp-Ala-Glu-Phe-Arg SEQ ID NO:2) with an N-terminal rhodamine green group and C-terminal tetramethylrhodamine group. This would allow cleavage of the intervening peptide sequence by Asp1 to be monitored by energy transfer between the two fluorescent groups.
In practice assays were conducted as follows:
The fluorescent peptide substrate (0.5 uM) was incubated with Asp1-Fc enzyme prepared as described above in a buffer containing 50 mM sodium acetate, 20 mM sodium chloride, 5% glycerol, 0.1% CHAPS (3-[(3-Cholamidopropyl)dimethylammonio]-1-propane-sulphonate), pH 3.8). The assays were started by addition of enzyme (50 nM final concentration) and cleavage monitored on a fluorescent platereader with 485 nm excitation, 538 nm emission. The C-terminal TAMRA group of the peptide acted as effective quencher, thus an increase in rhodamine green intensity was observed upon cleavage.
This assay was used to determine IC50 and Ki values for compounds of interest. […] Asp1 Fluorescence Polarisation Assay.

T1 sequence (Q9Y5Z0 with tags, fused parts or gaps limits assumed): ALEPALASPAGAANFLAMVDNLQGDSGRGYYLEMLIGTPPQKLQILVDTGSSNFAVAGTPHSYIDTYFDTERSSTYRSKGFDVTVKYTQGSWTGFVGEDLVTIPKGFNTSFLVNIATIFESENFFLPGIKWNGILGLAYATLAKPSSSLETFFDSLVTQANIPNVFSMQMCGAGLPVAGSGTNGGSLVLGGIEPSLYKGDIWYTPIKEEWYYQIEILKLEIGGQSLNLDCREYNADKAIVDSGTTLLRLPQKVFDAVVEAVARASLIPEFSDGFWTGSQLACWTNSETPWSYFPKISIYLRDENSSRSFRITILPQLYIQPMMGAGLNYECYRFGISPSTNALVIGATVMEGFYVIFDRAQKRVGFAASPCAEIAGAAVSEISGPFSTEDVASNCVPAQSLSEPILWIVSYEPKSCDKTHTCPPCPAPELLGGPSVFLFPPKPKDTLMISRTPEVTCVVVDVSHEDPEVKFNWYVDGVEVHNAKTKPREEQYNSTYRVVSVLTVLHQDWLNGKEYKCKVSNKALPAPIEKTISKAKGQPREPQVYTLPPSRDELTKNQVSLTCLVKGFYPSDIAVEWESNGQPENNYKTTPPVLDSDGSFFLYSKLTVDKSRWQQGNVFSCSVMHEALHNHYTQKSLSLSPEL

## CC(C)C[C@H](NC(=O)[C@H](C)NC(=O)[C@@H](NC(=O)[C@@H](N)CCC(=O)O)C(C)C)[C@@H](O)CCC(=O)N[C@@H](C)C(=O)N[C@@H](CCC(=O)O)C(=O)N[C@@H](Cc1ccccc1)C(=O)O [Compound (III)] (H-EVA[X1]AEF-OH)
[1]; at the highest concentrations of test compound (5 uM down in twofold serial dilutions)
  displacement of the fluorescent ligand (II): Complete displacement
[1]; competition against ligand (II) 5.0 nM, enzyme 50 nM, equilibrated 3 hrs, duplicate
  Ki: 50 nM
[2]; FRET cleavage assay, Asp1-Fc enzyme
  IC50: 60 nM

## CC(C)[C@H](NC(=O)[C@@H](N)CCC(=O)O)C(=O)N[C@@H](CC(N)=O)C(=O)N[C@@H](Cc1ccccc1)[C@@H](O)CCC(=O)N[C@@H](C)C(=O)N[C@@H](CCC(=O)O)C(=O)N[C@@H](Cc1ccccc1)C(=O)O [compound (I)] (H-EVN[Hexanoyl(5S-NH,4S-OH,6-Ph)]AEF-OH)
[2]; Asp1-Fc enzyme 50 nM, fluorescent peptide substrate 0.5 uM, pH 3.8
  Ki: 2.5 nM

## CC(C)[C@H](NC(=O)[C@H](CCC(=O)O)NC(=O)c1ccc2c(c1)C(=O)OC21c2ccccc2Oc2cc(N)ccc21)C(=O)N[C@@H](CC(N)=O)C(=O)N[C@@H](Cc1ccccc1)[C@@H](O)CCC(=O)N[C@@H](C)C(=O)N[C@@H](CCC(=O)O)C(=O)N[C@@H](Cc1ccccc1)C(=O)O (stereo partly drawn) [ligand (II)] (X2-EVN[Hexanoyl(5S-NH,4S-OH,6-Ph)]AEF-OH)
[1]; tight binding interaction of labelled ligand with Asp1-Fc enzyme, from anisotropy values, pH 3.8
  Kd: 0.075 nM
